Results reported in the NIST ThermoML archive (doi:10.1016/j.jct.2016.09.007).
Numbers after ± are expanded uncertainties.

Test: xn = mol fraction of the nth substance listed
Details: 93.2 kPa, Liquid; for speed of sound: Frequency=3 MHz, Sing-around technique in a fixed-path interferometer; for mass density: Vibrating tube method

CCCC(=O)[O-].CCCC[NH3+] [n-butylammonium butanoate] + CCCCO
Details | mass density, 293.15 K [kg/m3] | mass density, 298.15 K [kg/m3] | mass density, 303.15 K [kg/m3] | mass density, 308.15 K [kg/m3] | mass density, 313.15 K [kg/m3] | speed of sound, 293.15 K [m/s] | speed of sound, 298.15 K [m/s] | speed of sound, 303.15 K [m/s] | speed of sound, 308.15 K [m/s] | speed of sound, 313.15 K [m/s]
x1 = 0.0305 | 817.522 ± 4 | 813.696 ± 4 | 809.839 ± 4 | 805.95 ± 4 | 802.02 ± 4 | 1266.2 ± 5.3 | 1249.1 ± 5.3 | 1232 ± 5.3 | 1215.2 ± 5.3 | 1198.4 ± 5.3
x1 = 0.053 | 822.696 ± 4 | 818.886 ± 4 | 815.044 ± 4 | 811.168 ± 4 | 807.257 ± 4 | 1271.7 ± 5.3 | 1254.5 ± 5.3 | 1237.4 ± 5.3 | 1220.5 ± 5.3 | 1203.8 ± 5.3
x1 = 0.101 | 833.099 ± 4 | 829.318 ± 4 | 825.508 ± 4 | 821.665 ± 4 | 817.785 ± 4 | 1283.3 ± 5.3 | 1266 ± 5.3 | 1248.9 ± 5.3 | 1231.9 ± 5.3 | 1215 ± 5.3
x1 = 0.1611 | 844.531 ± 4 | 840.793 ± 4 | 837.028 ± 4 | 833.231 ± 4 | 829.399 ± 4 | 1296.3 ± 5.3 | 1279 ± 5.3 | 1261.8 ± 5.3 | 1244.8 ± 5.3 | 1227.9 ± 5.3
x1 = 0.2022 | 851.656 ± 4 | 847.949 ± 4 | 844.213 ± 4 | 840.451 ± 4 | 836.653 ± 4 | 1304.8 ± 5.3 | 1287.5 ± 5.3 | 1270.3 ± 5.3 | 1253.2 ± 5.3 | 1236.3 ± 5.3
x1 = 0.2509 | 859.278 ± 4 | 855.605 ± 4 | 851.908 ± 4 | 848.183 ± 4 | 844.427 ± 4 | 1314 ± 5.3 | 1296.7 ± 5.3 | 1279.5 ± 5.3 | 1262.5 ± 5.3 | 1245.6 ± 5.3
x1 = 0.3027 | 866.842 ± 4 | 863.204 ± 4 | 859.543 ± 4 | 855.853 ± 4 | 852.119 ± 4 | 1323.6 ± 5.3 | 1306.3 ± 5.3 | 1289.2 ± 5.3 | 1272.1 ± 5.3 | 1255.3 ± 5.3
x1 = 0.3528 | 873.375 ± 4 | 869.771 ± 4 | 866.147 ± 4 | 862.502 ± 4 | 858.829 ± 4 | 1332.3 ± 5.3 | 1315 ± 5.3 | 1297.9 ± 5.3 | 1280.9 ± 5.3 | 1264.1 ± 5.3
x1 = 0.4053 | 879.699 ± 4 | 876.13 ± 4 | 872.54 ± 4 | 868.931 ± 4 | 865.297 ± 4 | 1340.8 ± 5.3 | 1323.5 ± 5.3 | 1306.4 ± 5.3 | 1289.5 ± 5.3 | 1272.7 ± 5.3
x1 = 0.449 | 884.611 ± 4 | 881.064 ± 4 | 877.503 ± 4 | 873.925 ± 4 | 870.321 ± 4 | 1347.7 ± 5.3 | 1330.5 ± 5.3 | 1313.3 ± 5.3 | 1296.4 ± 5.3 | 1279.7 ± 5.3
x1 = 0.4988 | 889.855 ± 4 | 886.337 ± 4 | 882.803 ± 4 | 879.25 ± 4 | 875.67 ± 4 | 1355.4 ± 5.3 | 1338.1 ± 5.3 | 1321 ± 5.3 | 1304.1 ± 5.3 | 1287.4 ± 5.3
x1 = 0.5505 | 894.968 ± 4 | 891.475 ± 4 | 887.969 ± 4 | 884.447 ± 4 | 880.9 ± 4 | 1363.2 ± 5.3 | 1345.9 ± 5.3 | 1328.8 ± 5.3 | 1311.9 ± 5.3 | 1295.2 ± 5.3
x1 = 0.6005 | 899.486 ± 4 | 896.02 ± 4 | 892.541 ± 4 | 889.046 ± 4 | 885.533 ± 4 | 1370.4 ± 5.3 | 1353 ± 5.3 | 1335.9 ± 5.3 | 1319 ± 5.3 | 1302.3 ± 5.3
x1 = 0.6491 | 903.634 ± 4 | 900.198 ± 4 | 896.744 ± 4 | 893.273 ± 4 | 889.785 ± 4 | 1377.4 ± 5.3 | 1359.9 ± 5.3 | 1342.7 ± 5.3 | 1325.8 ± 5.3 | 1309.1 ± 5.3
x1 = 0.6982 | 907.626 ± 4 | 904.22 ± 4 | 900.798 ± 4 | 897.354 ± 4 | 893.894 ± 4 | 1384.5 ± 5.3 | 1366.9 ± 5.3 | 1349.6 ± 5.3 | 1332.6 ± 5.3 | 1316 ± 5.3
x1 = 0.7456 | 911.277 ± 4 | 907.896 ± 4 | 904.501 ± 4 | 901.087 ± 4 | 897.65 ± 4 | 1391.5 ± 5.3 | 1373.7 ± 5.3 | 1356.2 ± 5.3 | 1339.1 ± 5.3 | 1322.3 ± 5.3
x1 = 0.7944 | 914.718 ± 4 | 911.354 ± 4 | 907.982 ± 4 | 904.593 ± 4 | 901.177 ± 4 | 1398.7 ± 5.3 | 1380.5 ± 5.3 | 1362.8 ± 5.3 | 1345.5 ± 5.3 | 1328.7 ± 5.3
x1 = 0.8462 | 918.325 ± 4 | 914.961 ± 4 | 911.608 ± 4 | 908.243 ± 4 | 904.86 ± 4 | 1406.7 ± 5.3 | 1388 ± 5.3 | 1370 ± 5.3 | 1352.5 ± 5.3 | 1335.5 ± 5.3
x1 = 0.8928 | 921.358 ± 4 | 917.984 ± 4 | 914.632 ± 4 | 911.284 ± 4 | 907.92 ± 4 | 1414.2 ± 5.3 | 1394.9 ± 5.3 | 1376.5 ± 5.3 | 1358.7 ± 5.3 | 1341.5 ± 5.3
x1 = 0.9463 | 924.512 ± 4 | 921.173 ± 4 | 917.809 ± 4 | 914.461 ± 4 | 911.112 ± 4 | 1422.7 ± 5.3 | 1402.7 ± 5.3 | 1383.7 ± 5.3 | 1365.5 ± 5.3 | 1348 ± 5.3
x1 = 1 | 928.794 ± 4 | 925.509 ± 4 | 922.217 ± 4 | 918.88 ± 4 | 915.567 ± 4 | 1431.5 ± 5.3 | 1410.3 ± 5.3 | 1390.4 ± 5.3 | 1371.5 ± 5.3 | 1353.6 ± 5.3
